Reference: patent US20090209536A1, “AMINOQUINAZOLINE CANNABINOID RECEPTOR MODULATORS FOR TREATMENT OF DISEASE” (KALYPSYS, INC., priority 2007, published 2009)

How the values were obtained:
[1] = target: T1, human cannabinoid receptor type 2 (Homo sapiens, UniProt P34972); assay: Human CB2 Radioligand Binding Assay; details: competition with [3H] CP-55,940; membranes from stably transfected CHO CB2 cells; read-out: CB2 Ligand Binding Asssay EC50
T1 construct: expressed in transfected cells; membrane preparation
T1 sequence (P34972 whole entry): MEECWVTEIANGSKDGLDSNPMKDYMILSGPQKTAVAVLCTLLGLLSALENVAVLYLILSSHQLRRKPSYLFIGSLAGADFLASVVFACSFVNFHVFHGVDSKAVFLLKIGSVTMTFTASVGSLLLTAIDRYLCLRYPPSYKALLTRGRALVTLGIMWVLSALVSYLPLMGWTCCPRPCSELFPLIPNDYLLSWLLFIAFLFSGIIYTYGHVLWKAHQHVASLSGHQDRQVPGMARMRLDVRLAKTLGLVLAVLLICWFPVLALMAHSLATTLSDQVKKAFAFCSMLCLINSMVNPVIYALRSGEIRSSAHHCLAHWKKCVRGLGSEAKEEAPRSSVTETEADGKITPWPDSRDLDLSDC
Description: 1. Human CB2 Radioligand Binding Assay
This receptor binding filtration assay measures the receptor-ligand interactions of compounds by measuring ability to compete with a radiolabeled control ligand. Reactions were performed in 96 deep-well plate (Costar 3961) with a final volume of 600 ul. Compounds were added to each well either in single point (10 uM final) or dose-response. Compounds were delivered in DMSO or further diluted in incubation buffer to a final assay DMSO concentration of 1%. Incubation buffer (50 mM Tris-HCl pH 7.4, 2.5 mM EGTA, 5 mM MgCl2, 5.0 mg/ml fatty acid free BSA) was added to each well. Following buffer addition, [^3H] CP-55,940 was added. Tritiated CP-55,940 (Perkin Elmer) was used at the Kd determined from prior saturation binding experiments conducted on each lot of membranes. Membrane preparations from stably transfected CHO CB2 cells were added and the reaction was incubated for 90 minutes at 30° C. Unifilter GF/C filtration plates (Perkin Elmer) were pre-wet with 0.05% polyethylenimine. Samples were transferred to Unifilter plates and separation of unbound radioligand was achieved using a vacuum manifold (Millipore). Following thorough washing with 5 ml/well ice-cold wash buffer (50 mM Tris-HCl pH 7.4, 2.5 mM EGTA, 5 mM MgCl2, 0.5 mg/ml fatty acid free BSA), filterplates were dried completely. Betaplate Scint Scintillation cocktail (25 ul, Perkin Elmer) was applied and plates were read using Microbeta Trilux (Wallac). Data analysis was performed in Spotfire. Activity of the positive control (100 nM CP-55,940) was set as 100% efficacy.
Stable recombinant Human CB2-CHO cell membranes were prepared as follows: Chinese Hamster Ovarian (CHO) cells stably expressing human cannabinoid receptor type 2 were grown to 90% confluence in 15×100 mm culture dishes under puromycin selection (5 ug/ml) Cells were harvested from culture flasks using a cell scraper, were washed once with cold phosphate-buffered saline (calcium and magnesium free) and pelleted by centrifugation at 400 g for 5 min at 4° C. Cell pellet was washed once with cold phosphate-buffered saline and centrifuged again at 400×g for 5 min at 4° C. The pellet was suspended in ice-cold lysis buffer (10 mM Tris-HCl, 0.1 mM EDTA, containing […], pH 7.5) and homogenized in a chilled 7 ml glass dounce homogenizer using 50 strokes. The homogenate was centrifuged at 400 g for 15 min at 4° C. The cloudy supernatant was collected and centrifuged at 41000 g for 30 min at 4° C. The resulting pellet was washed with ice-cold sucrose-free lysis buffer and centrifuged again at 41000 g for 30 min at 4° C. The membrane pellet was suspended in sucrose-free storage buffer (10 mm Tris-HCl, 0.1 mM EDTA, pH 7.5) to a concentration of 2-3 mg protein/ml. Aliquots were flash frozen in liquid nitrogen and stored at −80° C. Concentration was determined using Dc protein assay kit (Bio-Rad).

[2] = target: T2, human cannabinoid receptor type 1 (Homo sapiens, UniProt P21554); assay: Human CB1 Radioligand Binding Assay (basis of selectivity, CB2 vs. CB1); details: CB1: HEK 293 EBNA cells expressing human CB1; CB2: CHO CB2 membranes
T2 construct: purchased Perkin Elmer RBHCB1M; host or cells: HEK 293 EBNA cells
T2 sequence (P21554 whole entry): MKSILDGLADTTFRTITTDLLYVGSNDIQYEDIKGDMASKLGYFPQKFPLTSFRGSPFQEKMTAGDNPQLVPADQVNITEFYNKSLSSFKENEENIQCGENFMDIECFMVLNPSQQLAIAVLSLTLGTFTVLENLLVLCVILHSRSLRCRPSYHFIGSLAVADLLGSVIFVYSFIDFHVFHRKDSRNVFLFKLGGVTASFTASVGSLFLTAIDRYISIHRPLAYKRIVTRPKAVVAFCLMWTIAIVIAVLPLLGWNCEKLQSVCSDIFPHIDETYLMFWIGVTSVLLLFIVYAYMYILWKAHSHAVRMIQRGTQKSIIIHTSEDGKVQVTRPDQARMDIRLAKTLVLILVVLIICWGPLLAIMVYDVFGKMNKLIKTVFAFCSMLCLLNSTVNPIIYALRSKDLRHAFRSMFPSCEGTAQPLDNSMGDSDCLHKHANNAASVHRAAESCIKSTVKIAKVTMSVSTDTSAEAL
Description: 2. Human CB1 Radioligand Binding Assay
The incubation buffer was composed of 50 mM Tris-HCl pH 7.4, 2.5 mM EDTA, 5 mM MgCl2, 5.0 mg/ml fatty acid free BSA and the wash buffer was composed of 50 mM Tris-HCl pH 7.4, 2.5 mM EDTA, 5 mM MgCl2, 0.5 mg/ml fatty acid free BSA.

| EC50 [1] [µM] | Selectivity, CB2 vs. CB1 [2] | SMILES |
| --- | --- | --- |
| < 1 | − (− indicates ≦ 10−fold) | CC(=O)N1CCN(c2nc(-c3ccccc3Cl)nc3cc(Cl)ccc23)CC1 [Example 233, 1-(4-(7-Chloro-2-(2-chlorophenyl)quinazolin-4-yl)piperazin-1-yl)ethanone] |
| < 1 | − (− indicates ≦ 10−fold) | Clc1ccc2c(N3CCCC3)nc(C3CCCCC3)nc2c1 [Example 160, 7-Chloro-2-cyclohexyl-4-(pyrrolidin-1-yl)quinazoline] |
| > 1 |  | CCOC(=O)N1CCN(c2nc(-c3ccccc3Cl)nc3cc(C(=O)N(CC)CC)ccc23)CC1 [Example 319, Ethyl 4-(2-(2-chlorophenyl)-7-(diethylcarbamoyl)quinazolin-4-yl)piperazine-1-carboxylate] |
| > 1 | − (− indicates ≦ 10−fold) | c1ccc(NCc2nc(Nc3ccccc3)c3ccccc3n2)cc1 [Example 303, N-Phenyl-2-((phenylamino)methyl)quinazolin-4-amine] |
| < 1 | − (− indicates ≦ 10−fold) | COc1ccc2nc(C3CCCCC3)nc(N3CCN(C)CC3)c2c1 [Example 163, 2-Cyclohexyl-6-methoxy-4-(4-methylpiperazin-1-yl)quinazoline] |
| > 1 | − (− indicates ≦ 10−fold) | Fc1ccc2nc(-c3ccccc3Cl)nc(N3CCCC3)c2c1 [Example 270, 2-(2-Chlorophenyl)-6-fluoro-4-(pyrrolidin-1-yl)quinazoline] |
| < 1 |  | CN1CCN(c2nc(-c3ccccc3Cl)nc3ccc(Br)cc23)CC1 [Example 183, 6-Bromo-2-(2-chlorophenyl)-4-(4-methylpiperazin-1-yl)quinazoline] |
| < 1 |  | O=S(=O)(NCc1nc(N2CCOCC2)c2ccccc2n1)c1ccccc1Br [Example 292, 2-Bromo-N-((4-morpholinoquinazolin-2-yl)methyl)benzenesulfonamide] |
| > 1 |  | CC(C)(C)c1ccc(Nc2nc(-c3ccc(OC(F)(F)F)cc3)nc3ccccc23)cc1 [Example 143, (4-tert-Butylphenyl)-[2-(4-trifluoromethoxyphenyl)-quinazolin-4-yl]amine] |
| > 1 |  | Fc1ccc(-c2nc(N3CCCC3)c3ccccc3n2)cc1F [Example 14, 2-(3,4-Difluorophenyl)-4-(pyrrolidin-1-yl)quinazoline] |

Second part, the compound before the results:

| SMILES | EC50 [1] [µM] | Selectivity, CB2 vs. CB1 [2] |
| --- | --- | --- |
| COc1ccc(Cc2nc(N3CCCCC3)c3ccccc3n2)cc1 [Example 336, 2-(4-Methoxybenzyl)-4-(piperidin-1-yl)quinazoline] | > 1 | + (+ indicates > 10−fold) |
| FC(F)(F)c1cccc2nc(-c3ccccc3Cl)nc(N3CCCC3)c12 [Example 242, 2-(2-Chlorophenyl)-4-(pyrrolidin-1-yl)-5-(trifluoromethyl)quinazoline] | < 1 | + (+ indicates > 10−fold) |
| c1ccc(Cc2nc(N3CCCCC3)c3ccccc3n2)cc1 [Example 339, 2-Benzyl-4-(piperidin-1-yl)quinazoline] | > 1 | − (− indicates ≦ 10−fold) |
| CC(=O)N1CCN(c2nc(-c3ccccc3F)nc3cccc(F)c23)CC1 [Example 280, 1-(4-(5-Fluoro-2-(2-fluorophenyl)quinazolin-4-yl)piperazin-1-yl)ethanone] | < 1 | + (+ indicates > 10−fold) |
| O=S(=O)(NCc1nc(N2CCCC2)c2ccccc2n1)c1ccc(F)cc1F [Example 4, 2,4-Difluoro-N-((4-(pyrrolidin-1-yl)quinazolin-2-yl)methyl)benzenesulfonamide] | < 1 | − (− indicates ≦ 10−fold) |
| FC(F)(F)c1ccc(-c2nc(N3CCCCC3)c3ccccc3n2)cc1 [Example 44, 4-(Piperidin-1-yl)-2-(4-(trifluoromethyl)phenyl)quinazoline] | < 1 | − (− indicates ≦ 10−fold) |
| COc1ccc(CNC(=O)c2ccc3c(N4CCN(C(C)=O)CC4)nc(-c4ccccc4Cl)nc3c2)cc1 [Example 325, 4-(4-Acetylpiperazin-1-yl)-2-(2-chlorophenyl)-N-(4-methoxybenzyl)quinazoline-7-carboxamide] | > 1 | − (− indicates ≦ 10−fold) |
| CCC(=O)N1CCN(c2nc(-c3ccccc3Cl)nc3ccccc23)CC1 [Example 98, 1-(4-(2-(2-Chlorophenyl)quinazolin-4-yl)piperazin-1-yl)propan-1-one] | < 1 | + (+ indicates > 10−fold) |
| Clc1ccccc1Nc1nc(-c2ccccc2)nc2ccccc12 [Example 49, N-(2-Chlorophenyl)-2-phenylquinazolin-4-amine] | > 1 | − (− indicates ≦ 10−fold) |
| Clc1ccccc1-c1nc(NCCCN2CCOCC2)c2ccccc2n1 [Example 192, 2-(2-Chlorophenyl)-N-(3-morpholinopropyl)quinazolin-4-amine] | > 1 | − (− indicates ≦ 10−fold) |
| O=S(=O)(NCc1nc(N2CCCC2)c2ccccc2n1)c1ccc2ccccc2c1 [Example 299, N-((4-(Pyrrolidin-1-yl)quinazolin-2-yl)methyl)naphthalene-2-sulfonamide] | > 1 | + (+ indicates > 10−fold) |
| CC(=O)N1CCN(c2nc(-c3ccc(Cl)cc3Cl)nc3ccccc23)CC1 [Example 202, 1-(4-(2-(2,4-Dichlorophenyl)quinazolin-4-yl)piperazin-1-yl)ethanone] | < 1 | − (− indicates ≦ 10−fold) |
| CN1CCN(c2nc(-c3ccccc3Cl)nc3ccccc23)C(=O)C1 [Example 74, 1-(2-(2-Chlorophenyl)quinazolin-4-yl)-4-methylpiperazin-2-one] | > 1 | − (− indicates ≦ 10−fold) |
| COC(=O)c1ccc2nc(-c3ccccc3Cl)nc(N3CCN(C)CC3)c2c1 [Example 310, Methyl 2-(2-chlorophenyl)-4-(4-methylpiperazin-1-yl)quinazoline-6-carboxylate] | < 1 | − (− indicates ≦ 10−fold) |
| COC(=O)c1ccc2nc(-c3ccccc3Cl)nc(Nc3ccccc3C)c2c1 [Example 329, Methyl 2-(2-chlorophenyl)-4-(o-tolylamino)quinazoline-6-carboxylate] | > 1 |  |
| COC(CNc1nc(-c2ccccc2Cl)nc2ccccc12)OC [Example 230, 2-(2-Chlorophenyl)-N-(2,2-dimethoxyethyl)quinazolin-4-amine] | > 1 |  |
| CCOC(=O)N1CCN(c2nc(-c3ccc(Cl)cc3)nc3ccc(Cl)cc23)CC1 [Example 210, Ethyl 4-(6-chloro-2-(4-chlorophenyl)quinazolin-4-yl)piperazine-1-carboxylate] | > 1 |  |
| Cc1c(Cl)cccc1S(=O)(=O)NCc1nc(N2CCOCC2)c2ccccc2n1 [Example 295, 3-Chloro-2-methyl-N-((4-morpholinoquinazolin-2-yl)methyl)benzenesulfonamide] | > 1 |  |
| O=S(=O)(NCc1nc(N2CCOCC2)c2ccccc2n1)c1ccc(Cl)cc1 [Example 293, 4-Chloro-N-((4-morpholinoquinazolin-2-yl)methyl)benzenesulfonamide] | > 1 |  |
| CN(Cc1ccccc1)c1nc(C2CCCCC2)nc2ccccc12 [Example 39, N-Benzyl-2-cyclohexyl-N-methylquinazolin-4-amine] | < 1 |  |
| CC(C)(C)c1ccc(-c2nc(NC3CCCCC3)c3ccccc3n2)cc1 [Example 129, 2-(4-tert-Butylphenyl)quinazolin-4-yl cyclohexylamine] | < 1 |  |
| c1ccc2c(N3CCCC3)nc(C3CCCC3)nc2c1 [Example 135, 2-Cyclopentyl-4-pyrrolidin-1-ylquinazoline] | > 1 |  |
